Experimental data taken from patent US12098135B2, “Aldoketo reductase inhibitors and uses thereof” (CASE WESTERN RESERVE UNIVERSITY, priority 2018, dated 2024).

Biological target: T1, AKR1A1 (Homo sapiens, UniProt P14550)
T1 sequence (P14550 1-325): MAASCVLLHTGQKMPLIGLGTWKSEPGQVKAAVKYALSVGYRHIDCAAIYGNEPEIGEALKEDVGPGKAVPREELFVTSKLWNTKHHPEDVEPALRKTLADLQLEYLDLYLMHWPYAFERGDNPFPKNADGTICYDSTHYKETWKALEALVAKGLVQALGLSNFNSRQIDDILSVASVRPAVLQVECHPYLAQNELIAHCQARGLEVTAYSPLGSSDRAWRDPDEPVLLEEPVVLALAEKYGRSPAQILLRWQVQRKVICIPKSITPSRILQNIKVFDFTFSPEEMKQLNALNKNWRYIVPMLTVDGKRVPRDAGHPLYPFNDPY
Test: AKR activity measured using S-nitroso-Coenzyme A (SNO-CoA) as a substrate; selectivity for AKR1A1 versus AKR1B1
Assay type: biochemical
Source text: In some embodiments, the selectivity of the AKR inhibitor for AKR1A1 inhibition versus other AKRs, such as AKR1B1, can be measured using S-nitroso-Coenzyme A (SNO-CoA) as a substrate. In this instance where SNO-CoA is used as a substrate to measure AKR activity, the AKR inhibitor can have a selectivity for AKR1A1 versus AKR1B1 of ≥1 time, ≥2 times, ≥5 times, ≥10 times, ≥20 times, ≥30 times, ≥40 times, ≥50 times or more. By way of example, JSD-26-1, which is described in the example below, has an AKR1A1/AKR1B1 selectivity of at least 9. In some embodiments, the AKR inhibitor can have negligible inhibition of AKR1B1 activity of SNO-CoA, and particularly compared to AKR1A1 activity.

- AKR1A1/AKR1B1 selectivity: at least 9
SMILES: O=C1NC(=O)C2(N1)c1ccccc1-c1ccc(C3CC3)cc12 (stereo not shown) [JSD-26-1]
